Experimental data published in patent US10907219B2, “Compositions and methods for controlling cellular function” (STC.UNM, priority 2014, dated 2021).
“Also recorded” adds a separate entry of the source.

How the values were obtained:
[1] = tested on: myr-ABI and EGFP-PYL-Tiam1 in CHO cells; assay: Light-induced ruffling via Tiam1 membrane localization / Rac1 signaling (fixed cells); type: cell-based; conditions: for percentage of cells displaying ruffling: compared with ABA-DMNB without irradiation or no drug
Source text: Next, we examined the induction of ruffle formation through the activation of the Rac1 signaling pathway in order to determine if the light-activated ABA system can be used to regulate a complex biological process. The GTP exchange factor, Tiam1, when presents at the cell membrane, activates Rac1 to initiate a signaling pathway that leads to cytoskeletal remodeling that forms filopodia and/or lamellipodia. To activate Rac1 signaling and induce membrane ruffling, light and ABA-DMNB were used to control membrane localization of Tiam1 (FIG. 23A). A construct encoding a membrane localized ABI (myr-ABI) and one expressing a constitutively active Tiam1 fused to EGFP and PYL were employed for this purpose (FIG. 23A). Following the transfection of CHO cells with both plasmids for 24 hours, 10 μM of ABA-DMNB was added and the treated cell culture was irradiated with 365 nm light from a fluorescent microscope. Cells were then fixed on slides and analyzed under a fluorescence microscope. […] Some background ruffling when overexpressing constitutively active Tiam1 was observed even when no drug was added.
Slide preparation: Cells were grown on glass coverslips in 24-well plates. The coverslips were washed with phosphate-buffered saline (PBS) and fixed with 4% paraformaldehyde (PFA, 300 μL, prepared in PBS) at room temperature for 20 min. The cells were then washed twice with PBS and incubated with 1×DAPI in the dark at the room temperature for 5 min. After a final wash with PBS, the coverslips were mounted on a glass slide with VECTASHIELD (Vector Laboratories, Inc., Burlingame, Calif.) mounting media and allowed to stand for two hours in the dark before imaging.
Statistical analysis of cell population: Cell were categorized as displaying nuclear export of EGFP when the fluorescent intensity of the nucleus was less than 60% of the intensity of the cytoplasm. […] Cells were counted from three separate experiments, with N>50 for each experiment.

[2] = Chemical stability of caged ABA in HEPES buffer/DMSO in the dark (HPLC); type: physicochemical; conditions: 70% HEPES buffer/30% DMSO, 37° C., 24 h
Procedure: FIG. 26. Chemical stability of ABA-DMNB. ABA-DMNB was incubated in 70% HEPES buffer/30% DMSO at 37° C. for 24 h in the dark. The samples were analyzed by HPLC.
FIG. 32. Chemical stability of ABA-DEACM. ABA-DEACM was incubated in 70% HEPES buffer/30% DMSO at 37° C. for 24 h in the dark. The samples were analyzed by HPLC and absorbance was monitored at 250 nm.
HPLC analysis: Reversed-phase HPLC was performed on an ACCLAIM 120 (4.6×100 mm) C18 column (Thermo Fisher Scientific, Waltham, Mass.) with an ULTIMATE 3000 pump system, including a Variable Wavelength Detector 3100, Degasser 1210, and Autosampler SPS 3000 (Thermo Fisher Scientific, Waltham, Mass.). A mixture of water and acetonitrile containing 0.1% TFA was used as the eluent. Absorbance at 250 nm was used to monitor the elution of the molecules. The method used an increase in acetonitrile from 5% to 95% over 15 minutes to elute the molecules at a flow rate of 0.7 mL/min. The peaks for the molecules were integrated by using Chromeleon software (Thermo Fisher Scientific, Waltham, Mass.). The molar absorptivity of both free and caged ABA at 250 nm were measured, which was used to calculate the concentration of each species from the intensity of absorbance at 250 nm. […]

[3] = tested on: HEK 293T eGFP reporter cells (VP-PYL and GAL4DBD-ABI); assay: H2O2-induced eGFP expression (transcriptional activation); type: cell-based
Source text: To determine if the ABA generated from the H2O2-induced cleavage of ABA-HP is biologically active, we tested whether it could induce downstream biological processes. We first investigated H2O2-induced transcriptional activation using an HEK 293T stable cell line, in which enhanced GFP (eGFP) expression occurs only in the presence of functional ABA. The cell line was created with both the ABA-responsive split transcriptional activator DNA fragment (VP-PYL and GAL4DBD-ABI linked by IRES; Liang et al., 2011, Sci. Signal. 4, rs2) and an inducible eGFP DNA fragment (with 5×UAS) inserted into the genome (FIG. 2a).
We tested the response of our system to H2O2 at physiologically relevant concentrations under cell culture conditions. The eGFP reporter cells were treated with no drug, or 10 μM of ABA, ABA-HP, or ABA-HP exposed to H2O2 (1, 5 or 10 eq) for five to 24 hours. The expression of eGFP was monitored at specific time points using a fluorescence microscope. […] Alternatively, for cellular experiments, cell culture media can be exchanged regularly with media containing fresh ABA-HP and thus restrict the build-up of esterase-cleaved ABA.
EGFP expression experiments: HEK 293T (GFP) cells were seeded 24 hours prior to treatment in 24-well plates at 100 K/well. 10 μM ABA-HP was added to the cells 10 minutes prior to the addition of 10 μM ABA and 10, 50, or 100 μM of H2O2. Images were taken for living cells at 5 hours, 7 hours, 10 hours and 24 hours.
An Axio Observer D1 fluorescent microscope (Carl Zeiss AG, Oberkochen, Germany) outfitted with HBO 100 microscopy illumination system (Carl Zeiss AG, Oberkochen, Germany; GFP: excitation 470/40 and emission 525/50) was used to analyze GFP expression and NES localization. A 20× objective was used to analyze GFP expression. A 63× objective was used for NES localization.

[4] = tested on: CHO cells transfected with ABA-inducible luciferase constructs; assay: ABA-inducible luciferase assay; type: cell-based

CCN(CC)c1ccc2c(COC(=O)/C=C(C)\C=C\[C@@]3(O)C(C)=CC(=O)CC3(C)C)cc(=O)oc2c1 [ABA-DEACM]
Rac1 signaling activation/ruffle formation ([1]; 10 μM, 405 nm light irradiation, fixed CHO cells): Rac1 signaling activation/ruffle formation in cells
chemical stability in biological buffer in the dark [2]: no chemical decomposition; also recorded: stable chemically

CC1=CC(=O)CC(C)(C)[C@@]1(O)/C=C/C(C)=C\C(=O)OCc1ccc(B2OC(C)(C)C(C)(C)O2)cc1 [ABA-HP]
eGFP expression ([3]; 10 μM plus H2O2 (1, 5 or 10 eq), after five hours): eGFP expression could be observed after five hours
dependence of eGFP expression on H2O2 level ([3]; 10 μM plus different amounts of H2O2): dose-dependent eGFP expression
eGFP expression ([3]; 10 μM, compound alone, extended incubation 24 hours): eGFP expression was indeed observed
eGFP expression ([3]; 10 μM, compound alone, no H2O2, within 10 hours): not observed within a 10-hour period
stability within cells ([3]; 10 μM, no H2O2, inferred from absent eGFP expression): at least 10 hours

COc1cc(COC(=O)/C=C(C)\C=C\[C@@]2(O)C(C)=CC(=O)CC2(C)C)c([N+](=O)[O-])cc1OC [ABA-DMNB]
percentage of cells displaying ruffling ([1]; 10 μM, 365 nm irradiation): higher percentage of ruffled cell; also recorded: greater percentage of cells displaying ruffling
chemical stability in biological buffer in the dark [2]: no chemical decomposition; also recorded: stable at 37 °C in biological buffer in the dark for 24 hours
dose dependence of luciferase expression ([4]; increasing concentrations, with irradiation): corresponding increases in the level of luciferase expression
luciferase expression ([4]; irradiated 365 nm UV 120 seconds in cell culture, twelve hours): induced luciferase expression

CC1=CC(=O)CC(C)(C)C1(O)/C=C/C(C)=C\C(=O)O (centres unmarked) [ABA, abscisic acid, reference compound]
percentage of cells displaying ruffling ([1]; not irradiated): higher percentage of ruffled cell; also recorded: greater percentage of cells displaying ruffling
dose dependence of gene expression ([4]; increasing dosages, not irradiated): dose-dependent induction of gene expression
eGFP expression ([3]; 10 μM, compound alone, after five hours): eGFP expression could be observed after five hours
